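Protocol summary: plate cells (96-well), add compound at 5 concentrations, incubate 48 h, interpolate endpoints linearly. The concentration for full growth arrest is given as TGI.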
Assays:
Experiment in all cases: DTP human tumour cell line panel, 48 h
NCI-H522 lung = test system: NCI-H522 lung
RPMI-8226 leukemia = test system: RPMI-8226 leukemia
SNB-19 CNS = test system: SNB-19 CNS
SF-268 CNS = test system: SF-268 CNS
NCI-H460 lung = test system: NCI-H460 lung
SK-OV-3 ovarian = test system: SK-OV-3 ovarian
ACHN renal = test system: ACHN renal
SK-MEL-5 melanoma = test system: SK-MEL-5 melanoma
SK-MEL-28 melanoma = test system: SK-MEL-28 melanoma
A498 renal = test system: A498 renal

Compound | TGI (NCI-H522 lung) [µM] | TGI (RPMI-8226 leukemia) [µM] | TGI (SNB-19 CNS) [µM] | TGI (SF-268 CNS) [µM] | TGI (NCI-H460 lung) [µM] | TGI (SK-OV-3 ovarian) [µM] | TGI (ACHN renal) [µM] | TGI (SK-MEL-5 melanoma) [µM] | TGI (SK-MEL-28 melanoma) [µM] | TGI (A498 renal) [µM]
Cc1ccc(N=Nc2c(O)c3ccccc3[nH]c2=O)c(S(=O)(=O)N(C)C)c1 | > 100 | > 100 | > 100 | > 100 | > 100 | > 100 | > 100 | > 100 | > 100 | > 100
COC(=O)OC[C@H]1O[C@@H](n2cc(C)c(=O)[nH]c2=O)CC1OC(=O)OC (stereo not given in full) | > 100 | > 100 | > 100 | > 100 | > 100 | > 100 | > 100 | > 100 | > 100 | > 100
COC1/C=C\C=C(/C)C(=O)NC2=CC(=O)C(NCCCl)=C(CC(C)CC(OC)C(O)C(C)/C=C(/C)C1OC(N)=O)C2=O (stereo not given) | 0.319 | 31.4 | 13.6 | 14 | 2.52 | 2.11 | 10.2 | 3.11 | 2.52 | 4.55
C/C(=N\Nc1nc2cc(C)ccc2s1)c1ccccn1 | > 19.9 | 3.52 | 21.2 | 9.14 | 52.8 | 43.1 | 11 | 4.35 | 12.1 | 10.6
CN(C)CC1CCC/C(=C\c2ccc(N(C)C)cc2)C1=O (stereo not given) | 3.21 | > 100 | 31.9 | 3.57 | 28.5 | 31.7 | 34 | 31.4 | 19.1 | 30.9
O=[N+]([O-])/C(C(Cl)=C(Cl)Cl)=C1\Nc2ccccc2O1 | 63.8 | 75.6 | > 100 | > 100 | > 100 | > 100 | > 100 | > 100 | > 100 | > 100
O=c1cnn(C2OC(CO)C(O)C(F)C2O)c(=O)[nH]1 (stereo not given) | > 100 | > 100 | > 100 | > 100 | > 100 | > 100 | > 100 | > 100 | > 100 | > 100
CCCCCCCCCCCCNC(=O)NCC(OCC)OCC | > 10 | > 10 | > 10 | > 10 | > 10 | > 10 | > 10 | > 10 | > 10 | > 10
C=C(NC(=O)C(=C)NC(=O)c1csc(C2=NC3c4csc(n4)C4NC(=O)c5csc(n5)C(C(C)(O)C(C)O)NC(=O)C5CSC(=N5)/C(=C/C)NC(=O)C(C(C)O)NC(=O)c5csc(n5)C3(CC2)NC(=O)C(C)NC(=O)C(=C)NC(=O)C(=C)NC(=O)C(C(C)C)NC2C=Cc3c(C(C)O)cc(nc3C2O)C(=O)OC4C)n1)C(N)=O (stereo not given) | 0.322 | 13.6 | 65.4 | > 100 | 59.7 | > 63.4 | > 61.2 | > 100 | > 62.1 | 16.5
O=S(=O)(O)c1ccc(NN(c2c(O)ccc3ccccc23)S(=O)(=O)O)cc1 | > 100 | > 100 | > 100 | > 100 | > 100 | > 100 | > 100 | > 100 | > 100 | > 100
NCCC1(N)CCNCC1 | > 100 | > 100 | > 100 | > 100 | > 100 | > 100 | > 100 | > 100 | > 100 | > 100
C[N+]1(C)CC=C(N2CCOCC2)CC1 | > 10 | > 10 | > 10 | > 10 | > 10 | > 10 | > 10 | > 10 | > 10 | > 10
NC1=CN(CCCO)C2=N/C(=C\c3ccco3)C(=O)N12 | > 100 | > 100 | > 100 | > 100 | > 100 | > 100 | > 100 | > 100 | > 100 | > 100
COc1cc2c(cc1OC)C(=O)N(c1ccc(O)cc1)C2 | > 100 | > 100 | > 100 | > 100 | > 100 | > 100 | > 100 | > 100 | > 100 | > 100
COc1ccc(CN2C(=O)CCC/C=C\[C@H]2CI)cc1 | 26.5 | 31.2 | 25.9 | 27.2 | 25.7 | 30 | 27.3 | 25.1 | 25.2 | 25
